What was measured:
kappa opiate receptor [1] = biological target: T1, kappa opiate receptor (Cavia porcellus, UniProt P41144); assay: Test for distinction between agonist and antagonist on the kappa opiate receptor (3H diprenorphine, with or without NaCl and GTP); format: binding, guinea pig; conditions: for IC50: guinea pig cerebellum membranes, 0.3 nM 3H diprenorphine
T1 construct: Membrane samples prepared from the cerebellum of guinea pigs; from tissue; host or cells: guinea pig cerebellum membranes
T1 sequence (P41144 whole entry): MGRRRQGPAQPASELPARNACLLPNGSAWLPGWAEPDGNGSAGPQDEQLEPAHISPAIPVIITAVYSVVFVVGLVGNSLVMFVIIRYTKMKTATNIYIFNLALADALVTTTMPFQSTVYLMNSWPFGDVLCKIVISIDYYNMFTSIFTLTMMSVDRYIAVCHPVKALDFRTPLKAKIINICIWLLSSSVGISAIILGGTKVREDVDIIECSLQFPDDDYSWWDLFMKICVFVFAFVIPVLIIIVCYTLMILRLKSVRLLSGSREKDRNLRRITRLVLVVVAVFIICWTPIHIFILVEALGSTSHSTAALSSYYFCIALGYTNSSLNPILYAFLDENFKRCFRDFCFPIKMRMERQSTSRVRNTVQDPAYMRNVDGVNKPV

mu opiate receptor = biological target: T2, mu opiate receptor (Rattus norvegicus, UniProt P33535); assay: Test of bonding to the mu opiate receptor in vitro (3H DAGO); format: binding; conditions: rat brain membranes, 1 nM 3H DAGO, 25° C. 40 minutes, pH 7.7 Tris buffer; read-out: IC50, displacement of 3H DAGO from mu opiate receptor
T2 construct: from the brains of rats were used; from tissue; host or cells: rat brain membranes
T2 sequence (P33535 whole entry): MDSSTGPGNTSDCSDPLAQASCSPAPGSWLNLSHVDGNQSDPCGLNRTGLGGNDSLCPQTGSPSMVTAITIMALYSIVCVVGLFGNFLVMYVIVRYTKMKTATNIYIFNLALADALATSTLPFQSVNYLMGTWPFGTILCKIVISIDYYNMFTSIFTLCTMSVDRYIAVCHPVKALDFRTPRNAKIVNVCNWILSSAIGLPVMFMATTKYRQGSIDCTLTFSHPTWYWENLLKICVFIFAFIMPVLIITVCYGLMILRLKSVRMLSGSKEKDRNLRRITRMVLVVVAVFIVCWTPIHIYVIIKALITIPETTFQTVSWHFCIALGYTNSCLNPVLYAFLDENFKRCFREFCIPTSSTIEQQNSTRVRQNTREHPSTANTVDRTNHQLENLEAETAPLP

dopamine receptor = biological target: T3, dopamine receptor (Rattus norvegicus, UniProt P61169); assay: Test of bonding to the dopamine receptor in vitro (3H spiroperidol); format: binding; conditions: rat striated bodies membranes, 0.15 nM 3H spiroperidol, pH 7.25 Krebs Tris buffer; read-out: IC50, displacement of 3H spiroperidol from dopamine receptor
T3 construct: prepared from the striated bodies of rats were used; from tissue; host or cells: rat striatum membranes
T3 sequence (P61169 whole entry): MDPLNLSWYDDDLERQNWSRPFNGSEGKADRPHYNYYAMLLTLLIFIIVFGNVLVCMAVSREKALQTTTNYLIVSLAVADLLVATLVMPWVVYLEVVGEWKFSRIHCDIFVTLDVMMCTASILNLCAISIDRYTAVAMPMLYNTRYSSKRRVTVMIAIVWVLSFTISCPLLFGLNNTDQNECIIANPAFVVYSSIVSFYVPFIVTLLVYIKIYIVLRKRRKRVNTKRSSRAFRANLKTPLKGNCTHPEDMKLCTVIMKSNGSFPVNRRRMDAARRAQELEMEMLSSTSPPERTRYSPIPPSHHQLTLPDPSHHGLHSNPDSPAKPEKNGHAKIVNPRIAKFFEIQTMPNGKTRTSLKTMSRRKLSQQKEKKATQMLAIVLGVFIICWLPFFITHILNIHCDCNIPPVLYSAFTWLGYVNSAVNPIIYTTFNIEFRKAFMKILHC
Protocol: (optionally for about 30 days) and prepared from the striated bodies of rats were used. The samples were suspended in pH 7.25 Krebs Tris buffer. […] The product was first tested at 5×10^-6 M, in triplicate. […] Incubation took place at 27° C. for 20 minutes, followed by returning to the water bath at 0° C. for 5 minutes, then vacuum filtering, rinsing with pH 7.7 Tris buffer, and the radioactivity was counted in the presence of a Triton scintillator.

female mice = assay: Antagonist effect vis-a-vis the analgesic activity of U-50488, hot plate test with mice; format: in vivo, mouse; conditions: hot plate 56° C., product of Example 1 20 mg/kg SC, U-50488 5 mg/kg SC, combination 5 + 20
kappa opiate receptor [2] = biological target: T1, kappa opiate receptor; assay: Test of the bonding to the kappa opiate receptor in vitro (3H ethylketocyclazocine); format: binding, guinea pig
Protocol: a) Test of the bonding to the kappa opiate receptor in vitro
Membrane samples prepared from the cerebellum of guinea pigs preserved at -30° C. (optionally for about 30 days) were used.
These samples were suspended in pH 7.7 Tris buffer. Fractions of 2 ml were allocated into hemolysis tubes and 1 nM of 3H ethylketocyclazocine and the product to be studied were added. The product was first tested in triplicate at 5×10^-6 M. When the tested product displaced more than 50% of the radioactivity bonded specifically to the receptor, it was tested again according to a range of 7 doses to determine the dose which inhibited 50% of the radioactivity bonded specifically to the receptor. Thus, the 50% inhibiting concentration was determined.
The non-specific bonding was determined by the addition of product known under the name U-50 488 H (Lahti et al. 1982, Life Sci. Vol. 31, p. 2257) at 10^-5 M in triplicate. Incubation took place at 25° C. for 40 minutes, followed by returning to the water bath at 0° C. for 5 minutes, then vacuum filtering, rinsing with pH 7.7 Tris buffer, and the radioactivity was counted in the presence of a Triton scintillator. The result was expressed directly as the 50% inhibiting concentration (IC50), that is to say as the concentration of studied product, expressed in nM, necessary to displace 50% of the radioactivity specifically bonded to the studied receptor.

male rats = assay: Antagonist effect vis-a-vis the diuretic activity of U-50488, action on diuresis; format: in vivo, rat; conditions: male rats fasted 16 h; product of Example 1 20 mg/kg SC, U-50488 5 mg/kg, combination 5 + 20 mg/kg; urine collected for one hour

## CCCCCN(CCc1ccccc1)CCc1cccc(O)c1 [Product of example 1, N-pentyl-N-phenethyl-3-hydroxyphenethylamine]
Kappa opiate receptor [1]; conclusion from IC50 with and without NaCl/GTP
  Agonist or antagonist character on the kappa receptor: antagonist product of the kappa receptor
Kappa opiate receptor [1]; NaCl 100 mM, GTP 50 uM, read-out: IC50 in the presence of GTP and NaCl
  IC50: 0.135 µM
Kappa opiate receptor [1]; without NaCl and GTP, read-out: IC50 in the absence of GTP and NaCl
  IC50: 0.043 µM
Mu opiate receptor
  IC50: 0.84 µM
Dopamine receptor
  IC50: 10.6 µM
Female mice; 30 minutes after injection
  Reaction time, m ± esm, 30 mn: 4.7 ± 0.6 s
Female mice; initial time (0 mn)
  Reaction time, m ± esm, 0 mn: 5.1 ± 0.1 s
Kappa opiate receptor [2]; conclusion from the kappa, mu and dopamine bonding tests
  Affinity for kappa, mu and dopamine receptors (conclusion): only has an affinity for the kappa opiate receptor
Kappa opiate receptor [2]; guinea pig cerebellum membranes, 1 nM 3H ethylketocyclazocine, 25° C. 40 minutes, pH 7.7 Tris buffer, read-out: IC50, displacement of 3H ethylketocyclazocine from kappa opiate receptor
  IC50: 0.057 µM
Male rats
  Volume of urine excreted in 1 hour, m ± esm: 0.0067 ± 0.0002 L/kg

Reference: patent publication US5141962A, “Amine compounds” (Roussel Uclaf, priority 1989, dated 1992)
